# Results reported in patent US8481525B2, “Kinase inhibitors and method of treating cancer with same” (University of Health Network, priority 2009, dated 2013).
# Like-named read-outs stand apart in the source and are kept apart here.
# Columns and labels:
# KDR (VEGFR2) = KDR (VEGFR2) (Homo sapiens, UniProt P35968); assay: CEREP HTRF kinase selectivity assay; type: biochemical
# Protocol: (§3) The inhibitory activity of selected compounds of the invention was evaluated against a panel of 45 different kinase enzymes by CEREP, France. […] The % Inhibition was determined by the formula; % Inhibition=100×(1−(experimental value−background value)/(high activity control−background value)).
# FLT-3 = FLT-3 (Homo sapiens, UniProt P36888); assay: CEREP HTRF kinase selectivity assay; type: biochemical; conditions: FLT-3, 10 uM
# Chain of FLT-3 (P36888 27-993): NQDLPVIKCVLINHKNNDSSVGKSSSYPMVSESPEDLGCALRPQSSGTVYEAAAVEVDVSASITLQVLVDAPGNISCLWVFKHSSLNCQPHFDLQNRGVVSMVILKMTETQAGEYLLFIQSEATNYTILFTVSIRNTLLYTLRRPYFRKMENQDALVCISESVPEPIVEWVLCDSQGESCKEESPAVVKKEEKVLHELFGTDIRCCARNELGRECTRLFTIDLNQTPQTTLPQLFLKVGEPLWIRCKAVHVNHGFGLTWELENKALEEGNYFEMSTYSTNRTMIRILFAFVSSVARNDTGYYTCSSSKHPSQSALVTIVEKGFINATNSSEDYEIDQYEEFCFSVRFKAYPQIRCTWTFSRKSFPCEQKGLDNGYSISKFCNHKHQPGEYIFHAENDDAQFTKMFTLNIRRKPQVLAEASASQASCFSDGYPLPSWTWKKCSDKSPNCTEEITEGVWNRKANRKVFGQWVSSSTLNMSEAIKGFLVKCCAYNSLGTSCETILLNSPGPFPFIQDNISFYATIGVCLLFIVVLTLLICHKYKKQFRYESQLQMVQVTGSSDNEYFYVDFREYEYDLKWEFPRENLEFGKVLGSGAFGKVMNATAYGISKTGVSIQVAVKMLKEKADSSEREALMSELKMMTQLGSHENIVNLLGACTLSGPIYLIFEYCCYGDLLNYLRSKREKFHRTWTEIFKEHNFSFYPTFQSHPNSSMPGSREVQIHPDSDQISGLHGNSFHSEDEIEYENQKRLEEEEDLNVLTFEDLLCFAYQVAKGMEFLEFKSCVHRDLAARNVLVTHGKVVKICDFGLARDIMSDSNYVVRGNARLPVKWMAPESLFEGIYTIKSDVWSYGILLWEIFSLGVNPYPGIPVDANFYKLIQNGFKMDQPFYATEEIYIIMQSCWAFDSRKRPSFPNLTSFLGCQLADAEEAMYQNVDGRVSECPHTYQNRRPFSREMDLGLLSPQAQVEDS
# Protocol: as §3
# PKCgamma = PKCgamma (Homo sapiens, UniProt P05129); assay: CEREP HTRF kinase selectivity assay; type: biochemical
# Protocol: (§1) The inhibitory activity of selected compounds of the invention was evaluated against a panel of 45 different kinase enzymes by CEREP, France. The assays were performed using standard HTRF assay methods as documented by CEREP against the human orthologues of Ab1 kinase, Akt1/PKBa, AMPKa, BMX kinase (Etk), Brk, CaMK2a, CaMK4, CDC2/CDK1 (cycB), CHK1, CHK2, c-Met kinase, CSK, EphB4 kinase, ERKI, ERK2 (P42mapk), FGFR2 kinase, FGFR4 kinase, FLT-1 kinase (VEGFR1), FLT-3 kinase, Fyn kinase, 1GF1R kinase, IRK (InsR), JNK 2, KDR kinase (VEGFR2), Lck kinase, Lyn kinase, MAPKAPK2, MEK1/MAP2K1, p38a kinase, p38d kinase, p38 g kinase, PDGFRb kinase, PDKI, PKA, PKCa, PKCb1, PKCb2, PKCg, Ret kinase, ROCK2, RSK2, Src kinase, Syk, and TRKA (Table 3). The % Inhibition was determined by the formula; % Inhibition=100×(1−(experimental value−background value)/(high activity control−background value)).
# ERK (P42mapk) = biological target: T1, ERK (P42mapk) (Homo sapiens, UniProt P28482); assay: CEREP HTRF kinase selectivity assay; type: biochemical
# T1 construct: CEREP
# Protocol: as §1
# Fyn = Fyn (Homo sapiens, UniProt P06241); assay: CEREP HTRF kinase selectivity assay; type: biochemical
# Protocol: as §1
# Akt1/PKBalpha = biological target: T2, Akt1/PKBalpha (Homo sapiens, UniProt P31749); assay: CEREP HTRF kinase selectivity assay; type: biochemical
# T2 construct: CEREP
# Protocol: as §1
# EphB4 = biological target: T3, EphB4 (Homo sapiens, UniProt P54760); assay: CEREP HTRF kinase selectivity assay; type: biochemical; conditions: EphB4, 10 uM
# T3 construct: CEREP
# Protocol: as §1
# CaMK4 = biological target: T4, CaMK4 (Homo sapiens, UniProt Q16566); assay: CEREP HTRF kinase selectivity assay; type: biochemical; conditions: CaMK4, 10 uM
# T4 construct: CEREP
# Protocol: as §1
# FGFR4 = biological target: T5, FGFR4 (Homo sapiens, UniProt P22455); assay: CEREP HTRF kinase selectivity assay; type: biochemical; conditions: FGFR4, 10 uM
# T5 construct: CEREP
# Protocol: as §1
# p38gamma = p38gamma (Homo sapiens, UniProt P53778); assay: CEREP HTRF kinase selectivity assay; type: biochemical
# Protocol: as §1
# PKCbeta 2 = PKCbeta 2 (Homo sapiens, UniProt P05771); assay: CEREP HTRF kinase selectivity assay; type: biochemical; conditions: PKCbeta 2, 10 uM
# Protocol: as §1
# PDK1 = PDK1 (Homo sapiens, UniProt O15530); assay: CEREP HTRF kinase selectivity assay; type: biochemical; conditions: PDK1, 10 uM
# Protocol: as §1
# p38alpha = p38alpha (Homo sapiens, UniProt Q16539); assay: CEREP HTRF kinase selectivity assay; type: biochemical
# Protocol: as §1
# CHK2 = biological target: T6, CHK2 (Homo sapiens, UniProt O96017); assay: CEREP HTRF kinase selectivity assay; type: biochemical; conditions: CHK2, 10 uM
# T6 construct: CEREP
# Protocol: as §1
# MAPKAPK2 = MAPKAPK2 (Homo sapiens, UniProt P49137); assay: CEREP HTRF kinase selectivity assay; type: biochemical; conditions: MAPKAPK2, 10 uM
# Protocol: as §1
# CDC2/CDK1 (cycB) = biological target: T7, CDC2/CDK1 (cycB) (Homo sapiens, UniProt P06493); assay: CEREP HTRF kinase selectivity assay; type: biochemical; conditions: CDC2/CDK1, 10 uM
# T7 construct: CEREP
# Protocol: as §1
# ROCK2 = ROCK2 (Homo sapiens, UniProt O75116); assay: CEREP HTRF kinase selectivity assay; type: biochemical; conditions: ROCK2, 10 uM
# Protocol: as §1
# Lyn = Lyn (Homo sapiens, UniProt P07948); assay: CEREP HTRF kinase selectivity assay; type: biochemical
# Chain of Lyn (P07948 whole entry): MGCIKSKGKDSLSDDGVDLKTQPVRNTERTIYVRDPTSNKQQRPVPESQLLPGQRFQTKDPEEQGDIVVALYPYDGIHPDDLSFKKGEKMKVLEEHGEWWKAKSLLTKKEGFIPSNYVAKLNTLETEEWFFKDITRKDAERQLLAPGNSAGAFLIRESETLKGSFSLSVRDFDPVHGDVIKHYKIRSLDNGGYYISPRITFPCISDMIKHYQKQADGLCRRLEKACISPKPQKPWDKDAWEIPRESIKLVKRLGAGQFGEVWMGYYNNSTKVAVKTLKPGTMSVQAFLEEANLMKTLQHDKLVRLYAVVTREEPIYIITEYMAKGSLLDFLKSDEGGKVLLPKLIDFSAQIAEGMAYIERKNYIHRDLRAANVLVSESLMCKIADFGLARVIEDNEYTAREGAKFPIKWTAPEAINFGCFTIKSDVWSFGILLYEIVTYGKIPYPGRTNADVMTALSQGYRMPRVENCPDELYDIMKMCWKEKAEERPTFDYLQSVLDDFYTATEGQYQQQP
# Protocol: as §1
# MEK1/MAP2K1 = MEK1/MAP2K1 (Homo sapiens, UniProt Q02750); assay: CEREP HTRF kinase selectivity assay; type: biochemical; conditions: MEK1/MAP2K1, 10 uM
# Chain of MEK1/MAP2K1 (Q02750 whole entry): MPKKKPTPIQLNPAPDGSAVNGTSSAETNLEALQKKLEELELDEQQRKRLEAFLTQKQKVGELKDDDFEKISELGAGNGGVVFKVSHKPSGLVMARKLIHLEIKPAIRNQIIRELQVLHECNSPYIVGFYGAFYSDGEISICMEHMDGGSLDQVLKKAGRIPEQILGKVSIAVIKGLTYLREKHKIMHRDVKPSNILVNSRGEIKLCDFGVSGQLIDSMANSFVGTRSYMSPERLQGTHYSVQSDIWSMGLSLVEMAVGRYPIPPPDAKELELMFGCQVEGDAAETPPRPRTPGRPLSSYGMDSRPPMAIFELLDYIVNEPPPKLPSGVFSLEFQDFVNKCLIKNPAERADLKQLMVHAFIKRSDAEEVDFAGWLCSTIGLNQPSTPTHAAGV
# Protocol: as §1
# BMX (Etk) = biological target: T8, BMX (Etk) (Homo sapiens, UniProt P51813); assay: CEREP HTRF kinase selectivity assay; type: biochemical
# T8 construct: CEREP
# Protocol: as §1
# CSK = biological target: T9, CSK (Homo sapiens, UniProt P41240); assay: CEREP HTRF kinase selectivity assay; type: biochemical
# T9 construct: CEREP
# T9 sequence (P41240 whole entry): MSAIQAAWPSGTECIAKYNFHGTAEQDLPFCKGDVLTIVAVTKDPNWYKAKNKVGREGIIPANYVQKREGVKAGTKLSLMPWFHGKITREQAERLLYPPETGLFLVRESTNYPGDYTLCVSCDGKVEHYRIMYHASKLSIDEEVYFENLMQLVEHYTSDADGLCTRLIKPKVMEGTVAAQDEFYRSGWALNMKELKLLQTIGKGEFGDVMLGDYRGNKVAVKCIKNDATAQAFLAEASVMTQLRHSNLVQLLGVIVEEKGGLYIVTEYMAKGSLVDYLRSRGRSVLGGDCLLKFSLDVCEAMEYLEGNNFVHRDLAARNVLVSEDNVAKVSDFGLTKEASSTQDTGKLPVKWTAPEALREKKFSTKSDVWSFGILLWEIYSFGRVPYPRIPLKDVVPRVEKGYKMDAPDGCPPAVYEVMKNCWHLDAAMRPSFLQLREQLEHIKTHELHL
# Protocol: as §1
# PKCalpha = PKCalpha (Homo sapiens, UniProt P17252); assay: CEREP HTRF kinase selectivity assay; type: biochemical
# Protocol: as §1
# Brk = biological target: T10, Brk (Homo sapiens, UniProt Q13882); assay: CEREP HTRF kinase selectivity assay; type: biochemical
# T10 construct: CEREP
# Protocol: as §1
# Lck = Lck (Homo sapiens, UniProt P06239); assay: CEREP HTRF kinase selectivity assay; type: biochemical
# Protocol: as §1
# p38delta = p38delta (Homo sapiens, UniProt O15264); assay: CEREP HTRF kinase selectivity assay; type: biochemical
# Protocol: as §1
# PKCbeta 1 = PKCbeta 1 (Homo sapiens, UniProt P05771); assay: CEREP HTRF kinase selectivity assay; type: biochemical; conditions: PKCbeta 1, 10 uM
# Chain of PKCbeta 1 (P05771 whole entry): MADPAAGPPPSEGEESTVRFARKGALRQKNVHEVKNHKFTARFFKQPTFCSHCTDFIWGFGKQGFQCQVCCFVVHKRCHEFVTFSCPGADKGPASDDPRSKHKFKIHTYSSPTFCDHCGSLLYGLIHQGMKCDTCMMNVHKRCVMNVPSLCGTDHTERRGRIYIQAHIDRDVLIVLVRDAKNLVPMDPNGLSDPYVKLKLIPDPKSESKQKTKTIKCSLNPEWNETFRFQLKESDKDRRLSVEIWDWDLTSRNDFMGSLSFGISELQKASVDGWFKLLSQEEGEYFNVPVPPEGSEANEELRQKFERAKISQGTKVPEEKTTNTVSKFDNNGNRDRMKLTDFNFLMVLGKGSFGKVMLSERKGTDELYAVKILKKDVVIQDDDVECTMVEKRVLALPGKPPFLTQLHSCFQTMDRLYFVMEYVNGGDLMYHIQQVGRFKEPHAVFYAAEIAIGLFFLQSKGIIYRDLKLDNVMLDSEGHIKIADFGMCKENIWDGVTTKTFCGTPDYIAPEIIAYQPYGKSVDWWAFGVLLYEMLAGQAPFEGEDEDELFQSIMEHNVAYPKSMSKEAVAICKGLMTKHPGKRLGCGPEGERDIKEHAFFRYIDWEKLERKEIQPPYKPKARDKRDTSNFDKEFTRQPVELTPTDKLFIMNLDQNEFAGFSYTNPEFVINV
# Protocol: as §1
# JNK 2 = JNK 2 (Homo sapiens, UniProt P45984); assay: CEREP HTRF kinase selectivity assay; type: biochemical; conditions: JNK 2, 10 uM
# Protocol: as §1
# PDGFRbeta = PDGFRbeta (Homo sapiens, UniProt P09619); assay: CEREP HTRF kinase selectivity assay; type: biochemical
# Protocol: as §1
# CHK1 = biological target: T11, CHK1 (Homo sapiens, UniProt O14757); assay: CEREP HTRF kinase selectivity assay; type: biochemical; conditions: CHK1, 10 uM
# T11 construct: CEREP
# Protocol: as §1
# ERK1 = biological target: T12, ERK1 (Homo sapiens, UniProt P27361); assay: CEREP HTRF kinase selectivity assay; type: biochemical; conditions: ERK1, 10 uM
# T12 construct: CEREP
# Protocol: as §1
# Src = Src (Homo sapiens, UniProt P12931); assay: CEREP HTRF kinase selectivity assay; type: biochemical
# Chain of Src (P12931 whole entry): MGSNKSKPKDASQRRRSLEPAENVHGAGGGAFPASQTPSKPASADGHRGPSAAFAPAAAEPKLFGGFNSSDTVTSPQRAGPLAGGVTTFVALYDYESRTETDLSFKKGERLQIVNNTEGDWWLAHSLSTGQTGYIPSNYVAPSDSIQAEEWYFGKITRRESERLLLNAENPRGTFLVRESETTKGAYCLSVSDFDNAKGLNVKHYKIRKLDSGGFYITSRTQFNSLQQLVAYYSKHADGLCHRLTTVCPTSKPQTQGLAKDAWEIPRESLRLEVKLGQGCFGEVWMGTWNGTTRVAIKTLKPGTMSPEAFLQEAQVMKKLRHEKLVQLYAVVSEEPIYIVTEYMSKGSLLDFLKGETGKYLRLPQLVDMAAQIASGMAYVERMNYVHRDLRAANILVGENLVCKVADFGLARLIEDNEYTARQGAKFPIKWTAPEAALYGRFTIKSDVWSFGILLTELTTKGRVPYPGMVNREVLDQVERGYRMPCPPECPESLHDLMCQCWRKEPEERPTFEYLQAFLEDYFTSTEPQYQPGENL
# Protocol: as §1
# Abl = biological target: T13, Abl (Homo sapiens, UniProt P00519); assay: CEREP HTRF kinase selectivity assay; type: biochemical
# T13 construct: CEREP
# Protocol: as §1
# RSK2 = RSK2 (Homo sapiens, UniProt P51812); assay: CEREP HTRF kinase selectivity assay; type: biochemical; conditions: RSK2, 10 uM
# Protocol: as §1
# IRK (InsR) = IRK (InsR) (Homo sapiens, UniProt P06213); assay: CEREP HTRF kinase selectivity assay; type: biochemical
# Protocol: as §1
# TRKA = biological target: T14, TRKA (Homo sapiens, UniProt P04629); assay: CEREP HTRF kinase selectivity assay; type: biochemical
# T14 construct: CEREP, France (contract panel)
# Protocol: as §1
# PKA = PKA (Homo sapiens, UniProt P17612); assay: CEREP HTRF kinase selectivity assay; type: biochemical
# Protocol: as §1
# Ret = Ret (Homo sapiens, UniProt P07949); assay: CEREP HTRF kinase selectivity assay; type: biochemical
# Protocol: as §1
# IGF1R = IGF1R (Homo sapiens, UniProt P08069); assay: CEREP HTRF kinase selectivity assay; type: biochemical
# Protocol: as §1
# c-Met = biological target: T15, c-Met (Homo sapiens, UniProt P08581); assay: CEREP HTRF kinase selectivity assay; type: biochemical
# T15 construct: CEREP
# Protocol: as §1
# HUV-EC-C cells = assay: In Vitro Angiogenesis Assay (tube formation); conditions: HUV-EC-C cells on ECMatrix, 4 hr; FIGS. 1 and 2
# AMPKalpha = assay: CEREP HTRF kinase selectivity assay; type: biochemical, human
# Protocol: as §1
# [1] = system: HCC1954 basal breast cancer cell line; assay: Cell growth inhibition, Sulforhodamine B assay (SRB); type: cell-based; conditions: Homo sapiens, HCC1954, 120 h, read-out: Cell Line GI50 Range HCC-1954
# Outline: (§2)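 Cells were exposed to compound for 5 days, then fixed in situ with ice-cold 10% TCA at 4 °C and stained with sulforhodamine B to estimate total protein mass.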
# [2] = system: SW620 colon cancer cell line; assay: as above; type: cell-based; conditions: Homo sapiens, SW-620, 120 h, 5 days culture, SRB
# Outline: as §2
# [3] = system: human mammary epithelial primary cells (HMEC); assay: as above; conditions: 120 h, read-out: Cell Line GI50 Range HMEC
# [4] = system: A549 lung cancer cell line; assay: as above; type: cell-based; conditions: Homo sapiens, 120 h; A549 lung cancer cell line; 5 days culture; SRB; read-out: Cell Line GI50 Range A-549
# Outline: as §2
# [5] = system: MCF-7 luminal breast cancer cell line; assay: as above; type: cell-based; conditions: Homo sapiens, MCF7, 120 h; MCF-7 luminal breast cancer cell line; 5 days culture; SRB; read-out: Cell Line GI50 Range MCF-7
# Outline: as §2
# [6] = system: MDA-MB-468 basal breast cancer cell line; assay: as above; type: cell-based; conditions: Homo sapiens, 120 h; MDA-MB-468 basal breast cancer cell line; 5 days culture; SRB; read-out: Cell Line GI50 Range MDA-MB-468
# Outline: as §2
# Chain of KDR (VEGFR2) (P35968 20-1356): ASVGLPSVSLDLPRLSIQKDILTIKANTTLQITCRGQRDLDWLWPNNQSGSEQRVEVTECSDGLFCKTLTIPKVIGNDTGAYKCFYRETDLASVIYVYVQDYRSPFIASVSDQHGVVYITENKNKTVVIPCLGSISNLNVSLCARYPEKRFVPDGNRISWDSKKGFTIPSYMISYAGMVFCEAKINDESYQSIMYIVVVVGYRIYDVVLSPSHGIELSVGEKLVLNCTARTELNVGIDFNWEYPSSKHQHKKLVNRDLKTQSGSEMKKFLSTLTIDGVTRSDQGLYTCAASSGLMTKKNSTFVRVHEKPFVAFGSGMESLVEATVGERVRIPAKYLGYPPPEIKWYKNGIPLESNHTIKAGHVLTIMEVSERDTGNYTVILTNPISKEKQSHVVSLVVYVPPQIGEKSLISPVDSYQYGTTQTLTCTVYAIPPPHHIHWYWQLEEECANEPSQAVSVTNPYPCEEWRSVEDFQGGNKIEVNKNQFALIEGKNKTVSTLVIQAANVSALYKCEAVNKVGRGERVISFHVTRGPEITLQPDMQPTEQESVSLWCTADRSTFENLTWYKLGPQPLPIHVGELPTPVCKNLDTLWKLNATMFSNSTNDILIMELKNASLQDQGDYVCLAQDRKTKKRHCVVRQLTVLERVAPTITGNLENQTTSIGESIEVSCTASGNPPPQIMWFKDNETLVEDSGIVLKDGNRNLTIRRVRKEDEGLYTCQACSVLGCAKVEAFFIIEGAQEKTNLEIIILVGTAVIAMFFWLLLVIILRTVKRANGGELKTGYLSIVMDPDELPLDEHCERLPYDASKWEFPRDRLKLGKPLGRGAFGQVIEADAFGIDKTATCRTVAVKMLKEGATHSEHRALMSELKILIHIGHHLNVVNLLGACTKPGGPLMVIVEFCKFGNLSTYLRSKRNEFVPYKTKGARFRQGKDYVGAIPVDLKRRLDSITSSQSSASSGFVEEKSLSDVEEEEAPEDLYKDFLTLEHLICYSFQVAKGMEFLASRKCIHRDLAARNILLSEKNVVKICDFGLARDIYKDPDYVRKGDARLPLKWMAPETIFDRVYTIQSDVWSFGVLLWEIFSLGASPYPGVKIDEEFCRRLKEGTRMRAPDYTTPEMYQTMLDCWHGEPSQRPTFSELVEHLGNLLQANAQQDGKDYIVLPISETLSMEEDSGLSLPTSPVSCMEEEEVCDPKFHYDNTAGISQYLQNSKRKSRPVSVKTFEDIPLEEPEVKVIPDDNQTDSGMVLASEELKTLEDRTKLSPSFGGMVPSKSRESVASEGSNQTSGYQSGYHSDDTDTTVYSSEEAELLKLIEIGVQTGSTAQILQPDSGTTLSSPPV
smiles,measurement,setting,value
"O=C1Nc2ccccc2[C@@]12C[C@@H]2c1ccc2c(/C=C/c3ccncc3)n[nH]c2c1 (racemic) [Example A22, (1R*,2S*)-(E)-2-(3-(2-(pyridin-4-yl)vinyl)-1H-indazol-6-yl)spiro-[cyclo-propane-1,3′-indolin]-2′-one]",inhibition at 10 µM,KDR (VEGFR2),98%
same,inhibition at 10 µM,FLT-3,100%
same,inhibition at 10 µM,PKCgamma,8%
same,inhibition at 10 µM,ERK (P42mapk),11%
same,inhibition at 10 µM,Fyn,87%
same,inhibition at 10 µM,Akt1/PKBalpha,-1%
same,inhibition at 10 µM,EphB4,99%
same,inhibition at 10 µM,CaMK4,-8%
same,inhibition at 10 µM,FGFR4,56%
same,inhibition at 10 µM,p38gamma,-15%
same,inhibition at 10 µM,PKCbeta 2,11%
same,inhibition at 10 µM,PDK1,69%
same,inhibition at 10 µM,p38alpha,32%
same,inhibition at 10 µM,CHK2,4%
same,inhibition at 10 µM,MAPKAPK2,4%
same,inhibition at 10 µM,CDC2/CDK1 (cycB),93%
same,inhibition at 10 µM,ROCK2,88%
same,inhibition at 10 µM,Lyn,99%
same,inhibition at 10 µM,MEK1/MAP2K1,12%
same,inhibition at 10 µM,BMX (Etk),71%
same,inhibition at 10 µM,CSK,99%
same,inhibition at 10 µM,PKCalpha,7%
same,inhibition at 10 µM,Brk,41%
same,inhibition at 10 µM,Lck,97%
same,inhibition at 10 µM,p38delta,-22%
same,inhibition at 10 µM,PKCbeta 1,0%
same,inhibition at 10 µM,JNK 2,32%
same,inhibition at 10 µM,PDGFRbeta,88%
same,inhibition at 10 µM,CHK1,37%
same,inhibition at 10 µM,ERK1,8%
same,inhibition at 10 µM,Src,26%
same,inhibition at 10 µM,Abl,97%
same,inhibition at 10 µM,RSK2,48%
same,inhibition at 10 µM,IRK (InsR),21%
same,inhibition at 10 µM,TRKA,100%
same,inhibition at 10 µM,PKA,-6%
same,inhibition at 10 µM,Ret,99%
same,inhibition at 10 µM,IGF1R,22%
same,inhibition at 10 µM,c-Met,97%
same,"anti-angiogenic effect (tube formation, % of control tube count)",HUV-EC-C cells,anti-agiogenic effects at submicromolar concentrations
"CN(C)Cc1ccc(/C=C/c2n[nH]c3cc([C@@H]4C[C@]45C(=O)Nc4ccccc45)ccc23)cc1 (racemic) [Example A26, (1R*,2R*)-(E)-2-(3-(4-((dimethylamino)methyl)styryl)-1H-indazol-6-yl)spiro[cyclopropane-1,3′-indolin]-2′-one 2,2,2-trifluoroacetate]",% Inhibition @ 10 uM,AMPKalpha,69%
same,GI50,[1],1000 to 10000 nM
same,GI50,"[2]; read-out: Cell Line GI50 Range SW-620, SW620 colon cancer cell line",100 to 1000 nM
same,inhibition at 10 µM,KDR (VEGFR2),58%
same,inhibition at 10 µM,FLT-3,102%
"COc1ccc2c(c1)[C@@]1(C[C@@H]1c1ccc3c(/C=C/c4ccc(N5CCN(C(C)C)CC5)cc4)n[nH]c3c1)C(=O)N2 (racemic) [Example A189, (1R*,2S*)-(E)-2-(3-(4-(4-isopropylpiperazin-1-yl)styryl)-1H-indazol-6-yl)-5′-methoxyspiro[cyclopropane-1,3′-indolin]-2′-one 2,2,2-trifluoroacetate]",GI50,[3],1000 to 10000 nM
same,GI50,[4],< 100 nM
same,GI50,"[1]; HCC1954 basal breast cancer cell line, 5 days culture, SRB",< 100 nM
same,GI50,[5],< 100 nM
same,GI50,"[2]; SW620 colon cancer cell line, read-out: Cell Line GI50 Range SW-620",< 100 nM
same,GI50,[6],< 100 nM
"COc1ccc2c(c1)[C@]1(C[C@H]1c1ccc3c(-c4ccc(N5CCN(C)CC5)nc4)n[nH]c3c1)C(=O)N2 (relative stereo) [Example A13, (1R*,2S*)-5′-Methoxy-2-(3-(6-(4-methylpiperazin-1-yl)pyridin-3-yl)-1H-indazol-6-yl)spiro[cycloropane-1,3′-indolin]-2′-one]",% Inhibition @ 10 uM,AMPKalpha,8%
same,"anti-angiogenic effect (tube formation, % of control tube count)",HUV-EC-C cells,anti-agiogenic effects at submicromolar concentrations
